The compounds below were run against Acetylcholinesterase (Electrophorus electricus, UniProt O42275) (assay: Inhibition of electric eel AChE by Ellman's method).
Acetylcholinesterase, sequence (O42275 whole entry): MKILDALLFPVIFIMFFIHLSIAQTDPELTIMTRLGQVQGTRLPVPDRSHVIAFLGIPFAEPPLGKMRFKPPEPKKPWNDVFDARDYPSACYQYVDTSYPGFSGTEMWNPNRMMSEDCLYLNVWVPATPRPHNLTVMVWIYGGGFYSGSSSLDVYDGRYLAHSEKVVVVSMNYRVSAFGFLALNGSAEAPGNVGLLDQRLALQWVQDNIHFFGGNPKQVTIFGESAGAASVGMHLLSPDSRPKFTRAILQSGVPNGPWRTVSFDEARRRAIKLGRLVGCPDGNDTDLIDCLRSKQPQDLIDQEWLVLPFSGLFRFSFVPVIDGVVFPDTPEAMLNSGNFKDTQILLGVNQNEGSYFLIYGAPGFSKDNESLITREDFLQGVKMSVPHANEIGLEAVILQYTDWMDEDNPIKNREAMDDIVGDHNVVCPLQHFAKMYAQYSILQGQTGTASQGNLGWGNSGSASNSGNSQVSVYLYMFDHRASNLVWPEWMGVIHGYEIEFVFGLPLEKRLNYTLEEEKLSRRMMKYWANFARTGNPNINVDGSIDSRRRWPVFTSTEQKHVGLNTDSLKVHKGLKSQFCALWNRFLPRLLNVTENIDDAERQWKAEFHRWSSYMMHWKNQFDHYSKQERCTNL
Work on `C=CC[N+](C)(C)c1ccc(CCC(=O)CCc2ccc([N+](C)(C)CC=C)cc2)cc1` yielded an IC50 of 10 nM.
Work on `COc1cc(-c2cc3c(c(=O)o2)C[C@]2(O)[C@@]4(C)C(=O)C=C[C@](C)(CO)[C@]4(O)CC[C@@]2(C)O3)cc(OC)c1OC` yielded an IC50 of 790 nM.
With `COc1cc(-c2cc3c(c(=O)o2)C[C@]2(O)[C@@]4(C)C(=O)C=C[C@@](C)(CO)[C@]4(O)CC[C@@]2(C)O3)cc(OC)c1OC` [4ALPHA-(HYDROXYMETHYL)-4ALPHA-DEMETHYLTERRITREM B] the IC50 was 0.423 nM.
